Results on one compound are retold here after article PMC7896091, “Synthesis of novel phytol-derived γ-butyrolactones and evaluation of their biological activity” (Scientific Reports, 2021).

One assay has as its system LoVo/DX cells. Briefly: Antiproliferative activity, SRB assay, doxorubicin resistant subline. Type of assay: cell-based, human. The method, then:
Cell lines were cultured according to the protocol described before. […] All culture media were supplemented with 2 mM L-glutamine (Sigma-Aldrich, Germany), 100 units/mL penicillin, and 100 µg/mL streptomycin (both from Polfa Tarchomin S.A., Poland). All cell lines were grown at 37 °C with 5% CO2 humidified atmosphere. The solutions of the compounds (50 mM) were prepared by dissolving the substances in DMSO (Sigma Aldrich, Germany). […] The in vitro cytotoxic effect of all agents was examined using the MTT (MV4-11) or SRB assay, described previously. […] Each compound in each concentration was tested in triplicate in a single experiment, which was repeated 3–5 times.
(In general: The SRB assay estimates cell density from bound dye.)

The test system of the next assay is MV4-11 cells. Briefly: Cell cycle analysis by flow cytometry (propidium iodide). Type of assay: cell-based, human. The note with it: MV4-11, 75 µM, 72 h. The method, then: Cell cycle analysis was carried out according to the procedure previously described. The MV4-11 cells were seeded at the density of 1 × 10^5 cells/well of culture medium on 24-well plates (Sarstedt, Germany) to the final volume of 2 mL and were exposed to the test compounds at concentrations 75 μM for 72 h. After incubation, the cells were collected and 1 × 10^6 of cells were washed twice in cold PBS and fixed for 24 h in 70% ethanol at − 20 °C. Then the cells were washed twice in PBS and incubated with RNAse (8 μg/mL, Fermentas, Germany) at 37 °C for 1 h. The cells were stained for 30 min. with propidium iodide (50 μg/mL, Sigma Aldrich, Germany) at 4 °C and the cellular DNA content was analyzed by flow cytometry using BD LSRFortessa cytometer (BD Bioscience, San Jose, USA). Compounds at each concentration were tested at least three times independently. Obtained results were analyzed using Flowing software 2 (Cell Imaging Core, Turku Centre for Biotechnology, University of Turku Åbo Akademi University).

Another assay concerns Myzus persicae. Put plainly: EPG monitoring of aphid probing and feeding (no-choice test). The format is in vivo. The note with it: 8-h EPG. The method, then: The peach potato aphids Myzus persicae (Sulzer) and the Chinese cabbage Brassica rapa subsp. pekinensis (Lour.) Hanelt were reared in laboratory at 20 °C, 65% r.h., and L16:8D photoperiod. One to seven days old apterous females of M. persicae and 3-week old plants with 4–5 fully developed leaves were used for experiments. M. persicae were obtained from the laboratory culture maintained at the Department of Botany and Ecology for many generations since 2000. All experiments were carried out under the same conditions of temperature, relative humidity, and photoperiod. The bioassays were started at 10–11.a.m. Each compound was dissolved in 70% ethanol to obtain the recommended 0.1% solution[40]. All compounds were applied on the adaxial and abaxial leaf surfaces by immersing a leaf in the ethanolic solution of a given compound for 30 s.[20]. Control leaves of similar size were immersed in 70% ethanol that was used as a solvent for the studied compounds. Experiments were performed 1 h after the compounds application to allow the evaporation of the solvent. Every plant and aphid were used only once.
Aphid probing and the phloem sap uptake by M. persicae was monitored using the technique of electronic registration of aphid probing in plant tissues, known as EPG (= Electrical Penetration Graph), that is frequently employed in insect–plant relationship studies considering insects with sucking-piercing mouthparts[42]–[44]. In this experimental set-up, aphid and plant are connected to electrodes and thus made parts of an electric circuit, which is completed when the aphid inserts its stylets into the plant. Weak voltage is supplied in the circuit, and all changing electric properties are recorded as EPG waveforms that can be correlated with aphid activities and stylet position in plant tissues[45],[46]. The parameters describing aphid behaviour during probing and feeding, such as total time of probing, proportion of phloem patterns E1 and E2, number of probes, etc., are good indicators of plant suitability or interference of probing by chemical or physical factors in individual plant tissues[44]–[46]. In the present study, aphids were attached to a golden wire electrode with conductive silver paint (epgsystems. eu) and starved for 1 h prior to the experiment. Probing behaviour of 12 apterous females/studied compound and control was monitored for 8 h continuously with Giga-4 and Giga-8 DC EPG with 1 GΩ of input resistance recording equipment (EPG Systems, Wageningen, The Netherlands). Each aphid was given access to a freshly prepared plant and each aphid/plant combination was used only once. Various behavioural phases were labelled manually using the Stylet + software (www.epgsystems.eu). The following aphid behaviours were distinguished: no penetration (waveform 'np' – aphid stylets outside the plant), pathway phase—penetration of non-phloem tissues (waveforms 'ABC'), phloem phase (salivation into sieve elements, waveform ‘E1’ and ingestion of phloem sap, waveform ‘E2’), and xylem phase (ingestion of xylem sap, waveform 'G'). Waveform ‘G’ occurred rarely irrespective of the treatment. Therefore, in all calculations the xylem phase was added to the pathway phase and termed as probing in non-phloem tissues. The E1/E2 transition patterns were included in E2. Waveform patterns that were not terminated before the end of the experimental period (8 h) were not excluded from the calculations. The parameters derived from EPG recordings were analyzed according to their frequency and duration in configuration related to activities in peripheral and vascular tissues.
All statistical calculations related to data of the no-choice test were performed using StatSoft, Inc. (2014) STATISTICA (data analysis software system), version 12, www.statsoft.com. […]

Where [1] appears, read: 0.1% solution, mean ± SE, n = 12.
The mark [2] stands for this setting: activities in non-phloem tissues, mean ± SE, n = 10-12.
Setting [3] is: activities in sieve elements, mean ± SE, n = 10-12.

With `CC(C)CCCC(C)CCCC(C)CCC[C@]1(C)CC(=O)O[C@@H]1CCl` (stereo in doubt) [compound 6, trans-5-Chloromethyl-4-methyl-4-(4′,8′,12′-trimethyltridecyl)dihydrofuran-2-one], the IC50 (commonly the concentration at which inhibition is half-maximal) in the assay on LoVo/DX cells (Homo sapiens, LoVo/DX, 72 h exposure, SRB, mean ± SD, n.a = no activity in concentration of 5, 25, 125, 625 μM) worked out at 188 ± 32.7 µM. Besides, the “Selectivity index SI, LoVo/DX” value with LoVo/DX cells (SI = IC50 BALB/3T3 / IC50 LoVo/DX) is given as 1.46. Also, the “Induced death of cells” value with MV4-11 cells was 50%. In the assay on Myzus persicae (setting [1]), the “Mean duration of probing (C + G + E)” value came to 1.2 ± 0.7 h, the Number of probes came to 42.9 ± 10.4, the “Total duration of pathway (C)” value was found to be 3.0 ± 0.5 h and the “Total duration of phloem phase (E)” value came to 3.5 ± 0.8 h. In addition, in the assay with Myzus persicae (setting [1]), the “Total duration of probing (C + G + E)” value is reported as 6.6 ± 0.5 h. Besides, in the assay on Myzus persicae (setting [2]), the “Number of probes before first phloem phase” value is on record as 24.9 ± 9.0 and the “Time from first probe to first phloem phase” value worked out at 3.0 ± 0.8 h. Besides, in the assay with Myzus persicae (setting [3]), the “Duration of first phloem phase” value amounted to 2.0 ± 0.8 h, the “Total duration of phloem salivation E1” value is 3.0 ± 1.2 min and the “Total duration of phloem sap ingestion E2” value was found to be 3.5 ± 0.8 h. In addition, the “Number of probes < 3 min” value in the assay on Myzus persicae (before first phloem phase, mean ± SE, n = 10-12) amounted to 20.3 ± 7.9. In addition, the “Proportion of salivation in phloem phase” value in the assay on Myzus persicae ((duration of E1 / duration of E1 + E2)*100) is 9.7%. For the same compound, the “Proportion of phloem phase in total probing” value in the assay on Myzus persicae (index = duration of phloem phase E / duration of probing C + G + E) was 46.7%.
